How the values were obtained:
Assay type in all cases: in vivo, human
subjects with PFIC [1] = assay: Total serum bile acid (sBA) level, MARCH-PFIC Phase 3 study; conditions: for percentage of sBA response (sBA responders): Week 18 to Week 26
Method: Serum bile acids and other cholestasis biomarkers. Blood samples were collected as described in Table 1 to measure levels of cholestasis biomarkers including total sBA, sBA subspecies, C4, FGF-19, and autotaxin as well as liver related parameters. Subjects were encouraged to fast at least 6 hours prior to collection (water intake was permitted if necessary but not recommended). Total sBA and targeted bile acid subspecies were quantified with liquid chromatography mass spectrometry (LC-MS) methodology for exploratory assessments. In addition, screening total sBA will be assessed with an enzymatic assay for inclusion criteria evaluation. C4, a key intermediate in the pathway for bile acid synthesis from cholesterol, will be determined by a validated LC-MS/MS method. The secondary efficacy endpoints are defined as Mean change in total serum bile acid (sBA) level between baseline and average of Weeks 18, 22, and 26 (FIGS. 11-12); 2) Percentage of ItchRO(Obs) responders from Week 15 to Week 26 (FIGS. 13A and 14A); 3) Percentage of sBA responders from Week 18 to Week 26 (FIGS. 13B and 14B). Pruritus responders are defined as a subject having a 4-week average morning ItchRO (Obs) severity change from baseline of […] OR an average severity score of ≤1.0. For the purpose of determining response, the average severity score from the three 4-week periods (weeks 15-18, 19-22 and 23-26) are used. A subject is defined as an ItchRO non-responder if the 4-week average baseline score is missing OR all three 4-week average (post-baseline) scores are missing. sBA responders are defined as a subject having an average sBA level of <102 μmon (applies only if baseline sBA was ≥102 μmon) OR a ≤−75% average percent change from baseline. For the purpose of determining response, the average sBA value from Weeks 18, 22 and 26 values are used. A subject is defined as an sBA non-responder if the baseline sBA value is missing OR sBA values are missing at all 3 time points (i.e., Weeks 18, 22, and 26). p-values comparing maralixibat to placebo treatment groups are calculated using Barnard's exact test.

patients with PFIC = assay: TEAEs, MARCH-ON long-term extension
Method: Eighty-five patients from MARCH trial enrolled in MARCH-ON (Table 10, FIG. 29A). Forty-seven patients had received Maralixibat (MRX-MRX) and 38 had received placebo (PBO-MRX) during MARCH trial.
Methods: Long-term maintenance of response was assessed for patients who were originally randomized to receive MRX in MARCH and continued with treatment in MARCH-ON (MRX-MRX group; n=33). MRX response was assessed for patients who received PBO in the MARCH study and switched to open-label MRX in MARCH-ON (PBO-MRX group; n=24). Assessments included: pruritus measured by 0-4 scale of ItchRO[Obs], sBA, bilirubin, and growth z-scores, as well as incidence of treatment-emergent adverse events(TEAEs). Baseline (BL) was defined as the start of MRX for each group.

[2] = system: patients with a truncated BSEP (t-BSEP) deficiency; assay: sBA in individual t-BSEP patients (week 26 and week 58 of treatment)
subjects with PFIC [3] = assay: Clinical laboratory evaluations (ALT/transaminases, INR, vitamins A, D, E), MARCH-PFIC Phase 3 study
Text: Clinical Laboratory Evaluations.
For subjects with a confirmed increase in ALT or TSB level, meeting the close monitoring criteria, the following investigations were considered, as clinically indicated: 1) Close and frequent monitoring of liver enzyme and serum bilirubin tests as clinically indicated; 2) Symptoms as well as prior, current, and intercurrent diseases/illnesses; 3) Use of or recent change in use of concomitant treatment (including non-prescription medications, herbal and dietary supplement preparations), alcohol use, recreational drug use, and special diets; 4) History for exposure to environmental chemical agents and travel; 5) Serology for viral hepatitis (HAV IgM, HBsAg, HCV antibody, HCVRNA, CMV IgM, and EBV antibody panel); 6) Serology for autoimmune hepatitis (e.g., antinuclear antibody [ANA]); 7) AST, creatine phosphokinase (CPK), and lactate dehydrogenase (LDH); 8) CBC with differential blood count (eosinophils); 9) Reticulocyte count, PT/INR.

[4] = All PFIC cohort, average of Weeks 18, 22, 26, FIG. 11B
[5] = BSEP deficiency cohort, average of Weeks 18, 22, 26, FIG. 11A

CCCCC1(CCCC)CS(=O)(=O)c2ccc(N(C)C)cc2[C@@H](c2ccc(OCc3ccc(C[N+]45CCN(CC4)CC5)cc3)cc2)[C@H]1O [maralixibat, 1-(4-((4-((4R,5R)-3,3-dibutyl-7-(dimethylamino)-4-hydroxy-1,1-dioxido-2,3,4,5-tetrahydrobenzo[b]thiepin-5-yl)phenoxy)methyl)benzyl)-1,4-diazabicyclo[2.2.2]octan-1-ium]
reduction of sBA levels (mean change from baseline) (subjects with PFIC [1]; [4]): over 150 μmon
sBA difference from placebo (subjects with PFIC [1]; [4]): 160.403 μmon
percentage of sBA response (sBA responders) (subjects with PFIC [1]; BSEP deficiency cohort, FIG. 13B): 35.7%
reduction of sBA levels (mean change from baseline) (subjects with PFIC [1]; [5]): ~200 µmol/L
sBA difference from placebo (subjects with PFIC [1]; [5]): 186.723 µmol/L
improvements in serum bile acid levels (subjects with PFIC [1]; FIC1, MDR3, TJP2, MYO5B cohorts, FIG. 34A-B): Significant improvements
reduction of sBA levels (mean change from baseline) (subjects with PFIC [1]; FIC1 cohort, FIG. 12A): ~100 µmol/L
sBA difference from placebo (subjects with PFIC [1]; FIC1 cohort, FIG. 12A): 126.382 µmol/L
percentage of sBA response (sBA responders) (subjects with PFIC [1]; FIG. 14B, sentence prints BSEP deficiency cohort): 45.5%
reduction of sBA levels (mean change from baseline) (subjects with PFIC [1]; MDR3 cohort, FIG. 12B): 150 μmon
sBA difference from placebo (subjects with PFIC [1]; MDR3 cohort, FIG. 12B): 135.089 μmon
sBA levels lower at each time point (change from baseline over time) (subjects with PFIC [1]; Week 2 to Week 26, BSEP deficiency group, PFIC group, all study participants, FIG. 15A-C): more than 100 μmon
improvements in serum bile acid levels (subjects with PFIC [1]; full-study population, FIG. 35B): statistically significant and clinically meaningful improvements
improvements in serum bile acid levels (subjects with PFIC [1]; patients with no-variant found, FIG. 35D): demonstrated improvements
Any TEAE, % (patients with PFIC; MRX-MRX (n = 47)): (1M)
Most common TEAE: diarrhoea, % (patients with PFIC; MRX-MRX (n = 47)): (63.8) %
Serious TEAE, % (patients with PFIC; MRX-MRX (n = 47)): (17.0) %
Severe TEAE, % (patients with PFIC; MRX-MRX (n = 47)): (10.6) %
TEAE leading to death, % (patients with PFIC; MRX-MRX (n = 47)): (2.1) %
TEAE leading to discontinuation, % (patients with PFIC; MRX-MRX (n = 47)): (6.4) %
Any TEAE, % (patients with PFIC; PBO-MRX (n = 38)): (92.1) %
Most common TEAE: diarrhoea, % (patients with PFIC; PBO-MRX (n = 38)): (34.2) %
Serious TEAE, % (patients with PFIC; PBO-MRX (n = 38)): (15.0) %
Severe TEAE, % (patients with PFIC; PBO-MRX (n = 38)): (5.3) %
early onset of diarrhea (most frequent TEAE) (patients with PFIC; overall): 51%
new safety signals (patients with PFIC; overall): no new safety signals
sBA change in individual t-BSEP patients ([2]; Baseline to Week 26, FIG. 42D): reductions from Baseline to Week 26 in sBA
sBA reduction in individual t-BSEP patients ([2]; all patients receiving maralixibat (MRX-MRX) or switching from placebo (PBO-MRX), Table 15): meaningful sBA reduction
changes in serum ALT (subjects with PFIC [3]; All-PFIC Cohort, FIG. 26A-B): No significant changes
changes from baseline in transaminase levels (subjects with PFIC [3]; MARCH, either group): no clinically meaningful changes
changes from baseline in serum levels of vitamins A, D, and E (subjects with PFIC [3]; MARCH, under regular FSV supplementation): No clinically meaningful changes
International normalized ratio (INR), mean change from Baseline (subjects with PFIC [3]; MARCH, week 26): −0.3
